ChEMBL document CHEMBL2086257, “Rhododendric acid A, a new ursane-type PTP1B inhibitor from the endangered plant Rhododendron brachycarpum G. Don” (Bioorg Med Chem Lett, 2012)

Target: T1, Tyrosine-protein phosphatase non-receptor type 1 (Homo sapiens, UniProt P18031)
T1 sequence (P18031 whole entry): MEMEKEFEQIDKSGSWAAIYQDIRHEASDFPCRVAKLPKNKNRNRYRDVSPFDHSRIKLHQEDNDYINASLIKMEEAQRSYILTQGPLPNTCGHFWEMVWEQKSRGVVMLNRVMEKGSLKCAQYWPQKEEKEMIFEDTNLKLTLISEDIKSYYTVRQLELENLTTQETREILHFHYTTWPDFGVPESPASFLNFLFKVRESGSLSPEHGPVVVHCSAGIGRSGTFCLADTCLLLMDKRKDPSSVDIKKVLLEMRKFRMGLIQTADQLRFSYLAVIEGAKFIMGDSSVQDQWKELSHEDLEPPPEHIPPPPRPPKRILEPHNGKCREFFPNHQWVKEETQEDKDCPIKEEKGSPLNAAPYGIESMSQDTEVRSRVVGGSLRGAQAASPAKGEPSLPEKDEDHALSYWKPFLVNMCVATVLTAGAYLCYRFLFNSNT
Assay: Inhibition of human recombinant PTP1B using p-nitrophenyl phosphate as substrate assessed as p-nitrophenol release after 30 mins

Row | Compound | IC50
1 | C=C1CC[C@]2(C(=O)O)CC[C@]3(C)C(=CC[C@@H]4[C@@]5(C)C[C@@H](O)[C@@H](O)[C@@](C)(CO)[C@@H]5CC[C@]43C)[C@@H]2[C@H]1C | 17.4 µM
2 | CCCCCCCCCCCCCCCC(=O)C1=C(O)[C@@H](CO)OC1=O | 4 µM
3 | C[C@H]1[C@H](C)CC[C@]2(C(=O)O)CC[C@]3(C)C(=CC[C@@H]4[C@@]5(C)CC[C@H](O)[C@@](C)(CO)[C@@H]5CC[C@]43C)[C@H]12 | 7.4 µM
4 | C=C1CC[C@]2(C(=O)O)CC[C@]3(C)C(=CC[C@@H]4[C@@]5(C)C[C@@H](O)[C@H](O)[C@@](C)(CO)[C@@H]5CC[C@]43C)[C@@H]2[C@H]1C [ACTINIDIC ACID] | 18 µM
5 | C[C@H]1[C@H](C)CC[C@]2(C(=O)O)CC[C@]3(C)C(=CC[C@@H]4[C@@]5(C)C[C@@H](O)[C@H](O)C(C)(C)[C@@H]5CC[C@]43C)[C@H]12 [COROSOLIC ACID] | 7 µM
6 | C=C1CC[C@]2(C(=O)O)CC[C@]3(C)C(=CC[C@@H]4[C@@]5(C)CC[C@H](O)[C@@](C)(CO)[C@@H]5CC[C@]43C)[C@@H]2[C@H]1C [RHODODENDRIC ACID A] | 6.3 µM
7 | C[C@@H]1CC[C@]2(C(=O)O)CC[C@]3(C)C(=CC[C@@H]4[C@@]5(C)CC[C@H](O)[C@@](C)(CO)[C@@H]5CC[C@]43C)[C@@H]2[C@]1(C)O [ROTUNDIC ACID] | 20.1 µM
